From patent US10219516B2, “Molecules having pesticidal utility, and intermediates, compositions, and processes, related thereto” (priority 2015, dated 2019)
Like-named read-outs stand apart in the source and are kept apart here.

Legend:
Assay type in all cases: in vivo
[1] = test system: Cabbage Looper (Trichoplusia ni, TRIPNI); assay: Bioassay on Cabbage Looper (CL), 128-well diet tray assay; conditions: Trichoplusia ni
Summary of the method: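 Second-instar larvae, one to five per well, placed on artificial diet treated with 50 μg/cm^2 test molecule in 90:10 acetone-water, dried before infestation. Held 5–7 days at 25° C, 14:10 light-dark; percent mortality averaged over eight wells.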

[2] = test system: Beet Armyworm (Spodoptera exigua, LAPHEG); assay: Bioassay on Beet Armyworm (BAW), 128-well diet tray assay
Summary of the method: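 Diet in each of eight wells received 50 μg/cm^2 of test molecule (90:10 acetone-water, dried), then one to five second-instar larvae were added. Mortality (%) was scored after five to seven days at 25° C. under 14:10 light-dark and averaged across the wells.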

[3] = test system: Yellow Fever Mosquito (Aedes aegypti, AEDSAE); assay: Bioassay on Yellow Fever Mosquito (YFM), 96-well plate larval assay; conditions: for YFM (Biological Results, rating): Species YFM (Yellow Fever Mosquito); for YFM rating: Yellow Fever Mosquito, 96-well plate larval assay
Summary of the method: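 Aedes aegypti larvae (about 1 day old) in liver-powder water were added to plates dispensed from DMSO master plates (4000 ppm stock) diluted with 90:10 water/acetone; six replicate plates per master. Lidded plates were held at room temperature for 3 days, then each well was scored for mortality.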

[4] = Species CL (Cabbage Looper), read-out: CL (Biological Results, rating)
[5] = Species BAW (Beet Armyworm), read-out: BAW (Biological Results, rating)
[6] = Cabbage Looper, 128-well diet tray assay, read-out: CL rating
[7] = Beet Armyworm, 128-well diet tray assay, read-out: BAW rating

| SMILES | pest or weed control at 50 µg/cm2 [1, 4] | pest or weed control at 50 µg/cm2 [2, 5] | YFM (Biological Results, rating) [3] | pest or weed control at 50 µg/cm2 [1, 6] | pest or weed control at 50 µg/cm2 [2, 7] | YFM rating [3] |
| --- | --- | --- | --- | --- | --- | --- |
| O=C(Nc1ccc(F)cc1F)c1cc(NC(=O)[C@H]2[C@H](c3ccc(Cl)c(Cl)c3)C2(Cl)Cl)ccc1Cl [F211, 2-Chloro-5-((1R,3R)-2,2-dichloro-3-(3,4-dichlorophenyl)cyclopropane-1-carboxamido)-N-(2,4-difluorophenyl)benzamide] | 50 to 100% | 50 to 100% | A (80-100) | – | – | – |
| O=C(Nc1ccc(F)cc1F)c1cc(NC(=O)[C@H]2[C@H](c3cc(Cl)cc(Cl)c3)C2(Cl)Cl)ccc1F (relative stereo) [F61, trans-5-(2,2-Dichloro-3-(3,5-dichlorophenyl)cyclopropane-1-carboxamido)-N-(2,4-difluorophenyl)-2-fluorobenzamide] | 50 to 100% | 50 to 100% | B (More than 0-Less than 80) | – | – | – |
| O=C(Nc1ccc2sccc2c1)c1cc(NC(=O)[C@H]2[C@H](c3cc(Cl)cc(Cl)c3)C2(Cl)Cl)ccc1Cl (relative stereo) [F452, trans-N-(Benzo[b]thiophen-5-yl)-2-chloro-5-(2,2-dichloro-3-(3,5-dichlorophenyl)cyclopropane-1-carboxamido)benzamide] | – | – | – | 50 to 100% | 50 to 100% | A (80-100) |
| O=C(Nc1ccc(F)cc1)c1cc(NC(=O)[C@H]2[C@H](c3cc(Cl)cc(Cl)c3)C2(Cl)Cl)ccc1C(F)(F)F (relative stereo) [F3, trans-5-(2,2-Dichloro-3-(3,5-dichlorophenyl)cyclopropane-1-carboxamido)-N-(4-fluorophenyl)-2-(trifluoromethyl)benzamide] | 50 to 100% | 50 to 100% | A (80-100) | – | – | – |
| O=C(Nc1ccc(F)cc1F)c1cc(NC(=O)[C@H]2[C@H](c3cc(F)cc(F)c3)C2(Cl)Cl)ccc1Cl (relative stereo) [F411, 2-Chloro-5-(trans)-(2,2-dichloro-3-(3,5-difluorophenyl)cyclopropane-1-carboxamido)-N-(2,4-difluorophenyl)benzamide] | – | – | – | 50 to 100% | 50 to 100% | A (80-100) |
| CN(C(=O)c1cc(NC(=O)[C@H]2[C@H](c3ccc(Cl)c(Cl)c3)C2(Cl)Cl)ccc1F)c1ccc(F)cc1 (relative stereo) [F59, trans-5-(2,2-Dichloro-3-(3,4-dichlorophenyl)cyclopropane-1-carboxamido)-2-fluoro-N-(4-fluorophenyl)-N-methylbenzamide] | 50 to 100% | 50 to 100% | A (80-100) | – | – | – |
| Cc1cc(N)ccc1NC(=O)c1cc(NC(=O)[C@H]2[C@H](c3ccc(F)c(Cl)c3)C2(Cl)Cl)ccc1Cl [F291, N-(4-Amino-2-methylphenyl)-2-chloro-5-((1R,3R)-2,2-dichloro-3-(3-chloro-4-fluorophenyl)cyclopropane-1-carboxamido)benzamide] | 50 to 100% | 50 to 100% | A (80-100) | – | – | – |
| O=C(Nc1ncc(F)cc1F)c1cc(NC(=O)[C@H]2[C@H](c3ccc(C(F)F)cc3)C2(Cl)Cl)ccc1Cl (relative stereo) [F591, 2-Chloro-5-(trans-2,2-dichloro-3-(4-(difluoromethyl)phenyl)cyclopropane-1-carboxamido)-N-(3,5-difluoropyridin-2-yl)benzamide] | – | – | – | 50 to 100% | 50 to 100% | A (80-100) |
| Nc1c(F)cnc(NC(=O)c2cc(NC(=O)[C@H]3[C@H](c4cc(Cl)c(Cl)c(Cl)c4)C3(Cl)Cl)ccc2Cl)c1F [F372, N-(4-Amino-3,5-difluoropyridin-2-yl)-2-chloro-5-((1R,3R)-2,2-dichloro-3-(3,4,5-trichlorophenyl)cyclopropane-1-carboxamido)benzamide] | 50 to 100% | 50 to 100% | A (80-100) | – | – | – |
| O=C(Nc1ccc(F)cc1F)c1cccc(NC(=O)C2C(c3cc(Cl)cc(Cl)c3)C2(Cl)Cl)c1 (stereo not drawn) [F186, 3-(trans)-2,2-Dichloro-3-(3,5-dichlorophenyl)cyclopropane-1-carboxamido)-N-(2,4-difluorophenyl)benzamide] | 50 to 100% | 50 to 100% | B (More than 0-Less than 80) | – | – | – |
| N#Cc1cc(Cl)ccc1NC(=O)c1cc(NC(=O)[C@H]2[C@H](c3cc(Cl)cc(Cl)c3)C2(Cl)Cl)ccc1Cl (relative stereo) [F301, 2-Chloro-N-(4-chloro-2-cyanophenyl)-5-(trans-2,2-dichloro-3-(3,5-dichlorophenyl)cyclopropane-1-carboxamido)benzamide] | 50 to 100% | 50 to 100% | A (80-100) | – | – | – |
| Nc1cc(F)cc(NC(=O)c2cc(NC(=O)[C@H]3[C@H](c4cc(Cl)c(Cl)c(Cl)c4)C3(Cl)Cl)ccc2Cl)c1 [F432, N-(3-Amino-5-fluorophenyl)-2-chloro-5-((1R,3R)-2,2-dichloro-3-(3,4,5-trichlorophenyl)cyclopropane-1-carboxamido)benzamide] | – | – | – | 50 to 100% | 50 to 100% | A (80-100) |
| CC(C)(C)OC(=O)Nc1ccc(NC(=O)c2cc(NC(=O)[C@H]3[C@H](c4cc(Cl)cc(Cl)c4)C3(Cl)Cl)ccc2Cl)cc1 (relative stereo) [PF13, trans-tert-Butyl-(4-(2-chloro-5-(2,2-dichloro-3-(3,5-dichlorophenyl)cyclopropane-1-carboxamido)benzamido)phenyl)carbamate] | – | – | – | 50 to 100% | 50 to 100% | A (80-100) |
| O=C(Nc1c(F)cccc1F)c1cc(NC(=O)[C@H]2[C@H](c3cccc(C(F)(F)F)c3)C2(Cl)Cl)ccc1Cl (relative stereo) [F58, trans-2-Chloro-5-(2,2-dichloro-3-(3-(trifluoromethyl)phenyl)cyclopropane-1-carboxamido)-N-(2,6-difluorophenyl)benzamide] | 50 to 100% | 50 to 100% | A (80-100) | – | – | – |
| N#Cc1cc(F)ccc1NC(=O)c1cc(NC(=O)[C@H]2[C@H](c3cc(Cl)cc(Br)c3)C2(Cl)Cl)ccc1Cl (relative stereo) [F333, 5-(trans-3-(3-Bromo-5-chlorophenyl)-2,2-dichlorocyclopropane-1-carboxamido)-2-chloro-N-(2-cyano-4-fluorophenyl)benzamide] | 50 to 100% | 50 to 100% | A (80-100) | – | – | – |
| O=C(Nc1ccc(F)cc1[N+](=O)[O-])c1cc(NC(=O)[C@H]2[C@H](c3ccc(Cl)c(Cl)c3)C2(Cl)Cl)ccc1Cl [F555, 2-Chloro-5-((1R,3R)-2,2-dichloro-3-(3,4-dichlorophenyl)cyclopropane-1-carboxamido)-N-(4-fluoro-2-nitrophenyl)benzamide] | – | – | – | 50 to 100% | 50 to 100% | A (80-100) |
| CN(C(=O)c1cccc(NC(=O)[C@H]2[C@H](c3ccc(Cl)c(Cl)c3)C2(Cl)Cl)c1F)c1ccccc1 (relative stereo) [F70, trans-3-(2,2-Dichloro-3-(3,4-dichlorophenyl)cyclopropane-1-carboxamido)-2-fluoro-N-methyl-N-phenylbenzamide] | 50 to 100% | 50 to 100% | A (80-100) | – | – | – |
| Nc1cc(NC(=O)c2cc(NC(=O)[C@H]3[C@H](c4ccc(Cl)c(Cl)c4)C3(Cl)Cl)ccc2Cl)c(F)cc1F [F354, N-(5-Amino-2,4-difluorophenyl)-2-chloro-5-((1R,3R)-2,2-dichloro-3-(3,4-dichlorophenyl)cyclopropane-1-carboxamido)benzamide] | 50 to 100% | 50 to 100% | A (80-100) | – | – | – |
| C=Cc1ccc([C@H]2[C@H](C(=O)Nc3ccc(Cl)c(C(=O)Nc4ccc(F)cc4F)c3)C2(Cl)Cl)cc1F (relative stereo) [F389, 2-Chloro-5-(trans-2,2-dichloro-3-(3-fluoro-4-vinylphenyl)cyclopropane-1-carboxamido)-N-(2,4-difluorophenyl)benzamide] | – | – | – | 50 to 100% | 50 to 100% | A (80-100) |
| O=C(Nc1ccc(F)cc1)c1cc(NC(=O)C2C(c3cc(Cl)cc(Cl)c3)[C@@H]2Cl)ccc1Cl (stereo partly drawn) [F212, 2-Chloro-5-((2S)-2-chloro-3-(3,5-dichlorophenyl)cyclopropane-1-carboxamido)-N-(4-fluorophenyl)benzamide] | 50 to 100% | 50 to 100% | A (80-100) | – | – | – |
| O=C(Nc1ccc(F)cc1F)c1cc(NC(=O)C2C(c3cc(Cl)cc(Cl)c3)C2(Cl)Br)ccc1Cl (stereo not drawn) [F187, 5-(trans)-2-Bromo-2-chloro-3-(3,5-dichlorophenyl)cyclopropane-1-carboxamido)-2-chloro-N-(2,4-difluorophenyl)benzamide] | 50 to 100% | 50 to 100% | A (80-100) | – | – | – |
